Test results: publication PMC5642509, “A small-molecule inhibitor targeting the AURKC–IκBα interaction decreases transformed growth of MDA-MB-231 breast cancer cells” (Oncotarget, 2017)

T1: Aurora C (AURKC) (Homo sapiens, UniProt Q9UQB9)
T1 construct: recombinant active AURKC
T1 sequence (Q9UQB9 1-309): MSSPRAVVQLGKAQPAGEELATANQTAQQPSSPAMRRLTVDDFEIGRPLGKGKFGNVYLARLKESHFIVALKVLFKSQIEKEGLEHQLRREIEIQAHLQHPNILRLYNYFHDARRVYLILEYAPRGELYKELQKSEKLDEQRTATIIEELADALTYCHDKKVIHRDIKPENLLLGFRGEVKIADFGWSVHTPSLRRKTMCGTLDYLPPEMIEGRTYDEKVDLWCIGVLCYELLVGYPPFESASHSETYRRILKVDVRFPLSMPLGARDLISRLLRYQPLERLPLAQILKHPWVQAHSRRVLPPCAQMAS

T2: pBIND-AURKC (human, UniProt Q9UQB9 1-309)
T2 construct: Aurora C kinase (AURKC); also called pM-BD-pAURKC; source: mammalian two-hybrid fusion, transfected cells
T2 sequence (looked up): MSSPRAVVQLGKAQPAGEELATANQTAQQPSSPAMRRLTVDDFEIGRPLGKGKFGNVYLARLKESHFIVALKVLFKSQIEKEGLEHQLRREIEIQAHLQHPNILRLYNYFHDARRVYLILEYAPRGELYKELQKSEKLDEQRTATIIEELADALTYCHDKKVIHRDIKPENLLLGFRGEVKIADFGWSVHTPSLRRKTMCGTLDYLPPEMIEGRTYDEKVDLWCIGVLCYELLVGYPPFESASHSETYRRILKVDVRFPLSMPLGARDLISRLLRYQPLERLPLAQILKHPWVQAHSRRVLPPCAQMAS


Columns and labels:
[1] = target: T1, Aurora C (AURKC); assay: ATP-competition kinase assay, active AURKC and purified IκBα, pS32 immunoblot (GSK1070916 […], various ATP); format: biochemical
[2] = target: T2, pBIND-AURKC; assay: two-hybrid; mammalian two-hybrid: pBIND-AURKC, pACT-IκBα and pG5-luciferase transfected in equal amounts; luciferase read-out normalised against the control; conditions: partners not purified

| Molecule | ATP-competition kinase assay, active AURKC and purified IκBα, pS32 immunoblot (G) [1] | fold luciferase activity over the Bind-AURKC vector [2] [fold] |
| --- | --- | --- |
| CCn1cc(-c2ccnc3[nH]c(-c4cccc(CN(C)C)c4)cc23)c(-c2ccc(NC(=O)N(C)C)cc2)n1 [GSK1070916] | the inhibitory activity of GSK1070916 was inversely proportional to the concentration of ATP (Figure 6E and 6F) |  |
| pACT-IκBα (natural protein, human, UniProt P25963 1-317, looked up, IκBα; also called pVP-IκBα; source: mammalian two-hybrid fusion, transfected cells) MFQAAERPQEWAMEGPRDGLKKERLLDDRHDSGLDSMKDEEYEQMVKELQEIRLEPQEVPRGSEPWKQQLTEDGDSFLHLAIIHEEKALTMEVIRQVKGDLAFLNFQNNLQQTPLHLAVITNQPEIAEALLGAGCDPELRDFRGNTPLHLACEQGCLASVGVLTQSCTTPHLHSILKATNYNGHTCLHLASIHGYLGIVELLVSLGADVNAQEPCNGRTALHLAVDLQNPDLVSLLLKCGADVNRVTYQGYSPYQLTWGRPSTRIQQQLGQLTLENLQMLPESEDEESYDTESEFTEFTEDELPYDDCVFGGQRLTL |  | ~2.7 |
